These results are taken from patent US12551478B2, “Quinoline derivative having indoleamine-2,3-dioxygenase inhibitory activity” (SHENZHEN CHIPSCREEN BIOSCIENCES CO., LTD., priority 2018, dated 2026).

pEC50: −log10 of the molar value. “And” between values parts separate entries of the source, which are not always exact repeats. Identical values can stand only once.

For experiment [1], the target named is T1, IDO in HeLa cell (Homo sapiens, UniProt P14902).
T1 construct: 50 ng/ml cytokine human IFN-γ and drugs with different concentrations; endogenous in cells; host or cells: HeLa cells stimulated with human IFN-γ
Nature of the experiment: Inhibition of IDO enzyme activity in HeLa cells by Chidamide in combination with IDO inhibitor. It counts as cell-based. Particulars: IFN-γ, 48 hours. The procedure: HeLa cells were digested by trypsin, collected and counted, then inoculated in a 96-well cell culture plate at 2×10^4 cells per well and cultured at 5% CO2 and 37° C. After the cells were inoculated overnight, the medium was replaced with 200 μM L-tryptophan phenol red-free DMEM medium, and 50 ng/ml cytokine human IFN-γ and drugs with different concentrations (administered according to the group and final concentration shown in FIG. 1) were added simultaneously, the vehicle control (DMSO) and cytokine-free and L-tryptophan negative control wells were set at the same time, and triplicate wells were set. After 48 hours of drug treatment, 200 μL of the supernatant from culture well was pipetted out, added with 40 μL of pre-prepared 30% (w/v) trichloroacetic acid solution, reacted at 65° C. for 20 minutes, and then centrifuged at 12000 rpm for 15 minutes. 100 μL of the supernatant was pipetted out and added into a 96-well flat bottom plate, then equal volume of 2% p-dimethylaminobenzaldehyde in glacial acetic acid was added and mixed well, and stood at room temperature for 10 minutes. The absorbance value of each well at wavelength of 492 nm was read with microplate reader (ELX800NB). After subtracting the cell-free medium OD492-BLK as a blank control from the reading of each well, the OD492-T of each dosing well with subtraction of the detection background and the […] of drug-free positive control well were obtained.
The relative enzyme activity inhibition rate against IDO of each dosing well cell was calculated according to the following formula: enzyme activity inhibition rate against IDO=(OD492−T0−OD492−T)/OD492−T0×100%

The subject of experiment [2] is CT-26 tumor. Nature of the experiment: Efficacy experiment on Balb/c mouse CT-26 tumor model. It counts as in vivo. As to conditions: for average tumor weight: Example 93, FIG. 6: tumors stripped after last administration on 17th day, vehicle group 2.7 g; for Relative tumor inhibition rate (%): Example 93: Chidamide 25 mg/kg, Example 3 20 mg/kg, intragastric once per day, 17 days, tumor volume vs vehicle control. The procedure: CT-26 cells were subjected to multiplication culture and kept in a logarithmic growth state. After the number of cells met the requirement, the cells were digested with trypsin and collected, washed sufficiently with a large amount of PBS twice to remove trypsin and serum components, centrifuged at room temperature and 800 rpm for 10 minutes, and the supernatant was discarded. The cells were resuspended in FBS-free DMEM medium and adjusted to reach a cell concentration of 3×10^7/mL.
Under aseptic condition, the cell suspension was injected into subcutaneous of back of […] at a dose of 100 μL/needle, one injection per Balb/c mouse. During the injection, 1 mL disposable medical syringe was used to ensure that the position and direction for inserting needle to each mouse was basically the same.
Eight days after cell inoculation, the tumor grew to an average volume of about 100 mm^3. The tumor-bearing mice were randomly divided into four groups (9 mice in each group), namely the vehicle control group, the chidamide group (25 mg/kg, intragastric administration, once per day), Example 3 group (20 mg/kg, intragastric administration, once per day), and the combination of Chidamide and Example 3 group, and then the mice were raised in cages after labeling, the mice was administered according to groups and observed for tumor formation every day. The body weight of each mouse was weighted before administration, and the dose was calculated according to per kilogram of body weight, that was, 10 μL of CMC-Na solution per gram of body weight for the vehicle control group, 10 μL of 2.5 mg/mL Chidamide-CMC-Na suspension per gram of body weight for the chidamide group (25 mg/kg), 10 μL of 2 mg/mL the compound of Example 3-CMC-Na suspension per gram of body weight for the Example 3 group (20 mg/kg), and 10 μL of CMC-Na suspension containing 2.5 mg/ml chidamide and 2 mg/ml the compound of Example 3 per gram of body weight for the combination group were administered intragastrically. The longest diameter of tumor (length) and the widest diameter (width) perpendicular thereto were measured by vernier caliper every 2 days, and the tumor volume was calculated by the formula TS=length×(width)^2/2 and recorded. Each mouse was intragastrically administered once per day at regular time; after the last administration on the 17th day, the mice were sacrificed and the tumors of tumor-bearing mice were stripped and weighed with […].
The relative tumor inhibition rate of each administration group was calculated according to the following formula: Relative tumor inhibition rate=(average tumor volume of the vehicle control group−average tumor volume of the administration group)/average tumor volume of the vehicle control group×100%

In experiment [3] the test system is CT-26 tumor. The description is as above. The class given is in vivo. Particulars: method similar to Example 93.
For experiment [4], the target named is T2, human indoleamine 2,3-dioxygenase 1 (hIDO1) (Homo sapiens, UniProt P14902).
T2 construct: up-regulate the expression of endogenous IDO1 under the induction of human IFN-γ; endogenous in cells; host or cells: HeLa cells stimulated with human IFN-γ
Kind of experiment: Inhibitory activity test at cellular level: IFN-γ-induced HeLa cells, kynurenine colour reaction. The class given is cell-based. Particulars: 48 hours; for inhibition at 0.1 µM: 50 ng/ml human IFN-γ, 200 μM L-tryptophan, each test compound 100 nM, read-out: hIDO1-cell base inhibition rate (%); for pEC50: human IFN-γ, read-out: hIDO1-cell base EC50. The source says: The subject of this assay was to comprehensively evaluate different compounds on their enzymatic inhibitory activity in vitro and on cell models against human indoleamine 2,3-dioxygenase 1 (hIDO1).
In the present application, the inventors used Hela cells expressing IDO1 induced by IFN-γ as a model, to test the IDO1 inhibitory activity of the compounds at the cellular level.
HeLa cells are human cervical cancer cell lines, which can up-regulate the expression of endogenous IDO1 under the induction of human IFN-γ. By adding the substrate L-tryptophan to cell culture medium, the enzymatic catalysis product kynurenine in cell supernatant was detected. In this experiment, the cultured Hela cells were used and co-incubated with different concentrations of test compounds under stimulation of human IFN-γ for a specified period of time, and the color reaction method of enzyme product and p-dimethylaminobenzaldehyde was used to detect the effect on IDO enzyme activity of cells treated by the test compounds.
(1) Hela cells were inoculated into 96-well culture plates at an appropriate concentration (about 20,000 cells/well). […] The cells were continuously cultured for 48 hours before detection.
(2) 200 μL of the supernatant in the culture well was pipetted out, added with 40 μL of the pre-prepared 30% (w/v) trichloroacetic acid solution, and reacted at 65° C. for 20 minutes, and then centrifuged at 12000 rpm for 15 minutes.
(3) 100 μL of the supernatant after centrifugation was pipetted out, added into a 96-well flat bottom plate, then added with an equal volume of 2% p-dimethylaminobenzaldehyde in glacial acetic acid and mixed well, and stood at room temperature for 10 minutes.
(4) microplate reader (ELX800NB) was used to detect the absorbance value of each well, and the detection wavelength was 492 nm.
In addition, after the cell enzyme activity inhibition rates of test compounds with different concentration gradients were separately calculated, their cell enzyme activity half inhibition concentrations (EC50) were calculated by using EC50 calculator.
According to the above-mentioned experimental method, the compounds of the present application were subjected to IDO1 enzymatic evaluation at cytological level (the concentration of each test compound was all 100 nM).
According to the above-mentioned experimental method, the compound of the present application was subjected to hIDO1-cell base EC50 detection.

[5] abbreviates: Example 89, Table 3: chidamide and Example 3 alone and in combination, concentrations per FIG. 1.
Where [6] appears, read: Example 90, Table 4: chidamide and Example 20 alone and in combination, FIG. 2.
The mark [7] stands for this setting: Example 91, Table 5: chidamide and Example 72 alone and in combination, FIG. 3.
The mark [8] stands for this setting: Example 94, Table 8: chidamide and Example 20 alone and in combination.
[9] abbreviates: Example 95, Table 9: chidamide and Example 72 alone and in combination.

T2 sequence (P14902 whole entry): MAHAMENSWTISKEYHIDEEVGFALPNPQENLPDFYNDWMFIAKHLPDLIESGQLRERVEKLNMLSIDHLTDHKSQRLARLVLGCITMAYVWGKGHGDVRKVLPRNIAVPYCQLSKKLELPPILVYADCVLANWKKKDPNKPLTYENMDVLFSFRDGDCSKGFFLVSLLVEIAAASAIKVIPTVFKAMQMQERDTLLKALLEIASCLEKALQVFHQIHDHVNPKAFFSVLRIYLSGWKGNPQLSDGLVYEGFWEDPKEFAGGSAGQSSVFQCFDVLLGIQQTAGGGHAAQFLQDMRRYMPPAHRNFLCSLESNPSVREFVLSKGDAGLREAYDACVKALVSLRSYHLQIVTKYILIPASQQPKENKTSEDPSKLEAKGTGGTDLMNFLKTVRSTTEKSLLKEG
T1 sequence (P14902 whole entry): as above

Turning to `Nc1cc(F)ccc1NC(=O)c1ccc(CNC(=O)/C=C/c2cccnc2)cc1` [Chidamide, reference compound], the “Average inhibition rate (%) against IDO” value in experiment [1] (setting [5]) amounted to 24%; in experiment [1] (setting [6]), 22%; in experiment [1] (setting [7]), 23%; in experiment [1] (Example 92, Table 6: chidamide and Example 87 alone and in combination, FIG. 4) it was 23%. For the same compound, the average tumor weight in experiment [2] was found to be 1.6 g. The “Relative tumor inhibition rate (%)” value in experiment [2] is 33% and 33.6%; in experiment [3] (setting [8]), 30%; in experiment [3] (setting [9]), 25.4%; in experiment [3] (Example 96, Table 10: chidamide and Example 87 alone and in combination), 55%.
The inhibition is the relative decrease from the control value, in per cent. In general, pEC50 refers to the EC50 on a negative log10 scale, so that one unit is a factor of ten. For the compound `O=C(Nc1ccc(Cl)cc1)N1CC2(CC(Oc3ccnc4ccc(F)cc34)C2)C1` [Example 3, N-(4-chlorophenyl)-6-((6-fluoroquinolin-4-yl)oxy)-2-aza-spiro[3.3]heptan-2-carboxamide], in experiment [4], the inhibition at 0.1 µM was found to be 90% and the pEC50 was 7.85. For the same compound, in experiment [1] (setting [5]), the “Average inhibition rate (%) against IDO” value was 31%. In experiment [2], the average tumor weight stood at 2.3 g; the “Relative tumor inhibition rate (%)” value was 20% and 20.1%.
With `O=C(Nc1ccc2c(c1)OCO2)N1CC2(CC(Oc3ccnc4ccc(F)cc34)C2)C1` [Example 20, N-(benzo[d][1,3]dioxol-5-yl)-6-((6-fluoroquinolin-4-yl)oxy)-2-aza-spiro[3.3]heptan-2-carboxamide], in experiment [4], the inhibition at 0.1 µM is 64% and the pEC50 is 7.34. Further, the “Average inhibition rate (%) against IDO” value in experiment [1] (setting [6]) is listed as 16%. The “Relative tumor inhibition rate (%)” value in experiment [3] (setting [8]) is recorded as 8.3%.
Consider `COc1ccc(NC(=O)C(C)N2CCC3CN(c4ccnc5ccc(F)cc45)CC3C2)cc1` (stereo not shown) [Example 66, 2-(2-(6-fluoroquinolin-4-yl)octahydro-5H-pyrrolo[3,4-c]pyridin-5-yl)-N-(4-methoxyphenyl)propionamide], for which the inhibition at 0.1 µM in experiment [4] was 90%.
With `CC(C(=O)Nc1ccccc1)N1CCC2CN(c3ccnc4ccc(F)cc34)CC2C1` (stereo not shown) [Example 67, 2-(2-(6-fluoroquinolin-4-yl)octahydro-5H-pyrrolo[3,4-c]pyridin-5-yl)-N-phenyl-propionamide], the inhibition at 0.1 µM in experiment [4] worked out at 94%.
For `CC(C(=O)Nc1ccc(Cl)cc1)N1CC2C(C1)C2Nc1ccnc2ccc(F)cc12` (stereo not shown) [Example 72, 2-(6-((6-fluoroquinolin-4-yl)amino)-3-aza-bicyclo[3.1.0]hexan-3-yl)-N-(4-chlorophenyl)propionamide], in experiment [4], the inhibition at 0.1 µM was determined as 88% and the pEC50 was 8.10. The “Average inhibition rate (%) against IDO” value in experiment [1] (setting [7]) came out at 36%. The “Relative tumor inhibition rate (%)” value in experiment [3] (setting [9]) was 7.6%.
In the case of `COc1ccc(NC(=O)C(C)N2CC3C(C2)C3Nc2ccnc3ccc(F)cc23)cc1` (stereo not shown) [Example 73, 2-(6-((6-fluoroquinolin-4-yl)amino)-3-aza-bicyclo[3.1.0]hexan-3-yl)-N-(4-methoxyphenyl)propionamide], in experiment [4], the inhibition at 0.1 µM stood at 83%.
Same read-out and setting: in the case of `CC(C(=O)Nc1ccccc1)N1CC2C(C1)C2Nc1ccnc2ccc(F)cc12` (stereo not shown) [Example 74, 2-(6-((6-fluoroquinolin-4-yl)amino)-3-aza-bicyclo[3.1.0]hexan-3-yl)-N-phenyl-propionamide] it was 85%.
For the compound `O=C(Nc1ccc(Cl)cc1)C(CO)N1CC2C(C1)C2Nc1ccnc2ccc(F)cc12` (stereo not shown) [Example 78, N-(4-chlorophenyl)-2-(6-((6-fluoroquinolin-4-yl)amino)-3-aza-bicyclo[3.1.0]hexan-3-yl)-3-hydroxypropionamide], in experiment [4], the inhibition at 0.1 µM was found to be 42%.
The same measure, in the same setting: the result for `CC(C(=O)Nc1ccc(Cl)cc1)N1CC2CC(Nc3ccnc4ccc(F)cc34)CC2C1` (stereo not shown) [Example 83, N-(4-chlorophenyl)-2-(5-((6-fluoroquinolin-4-yl)amino)hexahydro-cyclopenta[c]pyrrol-2(1H)-yl)propionamide] reads 45%.
